Experimental data published in patent US20080109040A1, “METHOD OF TREATING ARRHYTHMIAS” (priority 2002, published 2008).
Like-named read-outs stand apart in the source and are kept apart here.

What was measured:
[1] = Solubility of ranolazine in aqueous solutions as a function of pH; format: physicochemical
Method: In the following examples solutions of ranolazine in water or solutions with a pH above 6 are made up of ranolazine dihydrochloride. In the discussion portions of the following examples, concentrations of ranolazine found as a result of experiments are calculated as ranolazine free base.

[2] = test system: inward rectifier potassium current (IK1); assay: Voltage clamp of inward rectifier IK1 in canine ventricular myocytes; format: cell-based; conditions: ranolazine up to 100 μM
Method: Myocytes were isolated by enzymatic dissociation from a wedge-shaped section of the left ventricular free wall supplied by the left circumflex coronary artery. Cells from the epicardial and midmyocardial regions of the left ventricle were used in this study.
Inward rectifier potassium current (IK), slow delayed rectifier potassium current (IKs), and rapid delayed rectifier potassium current (IKr) were recorded at 37° C. using conventional whole cell voltage clamp configuration.
IK1 was measured using an external solution containing 3 μM ouabain and 5 μM nifedipine to block the sodium-potassium pump and L-type calcium current (ICa,L), respectively. […] 5 μM nifedipine was present in the external solution when IKr was being recorded. […]
IKr was measured as the time-dependent tail current elicited at a potential of −40 mV following a short 250 ms depolarizing pulse to 30 mV. Data are presented as mean ±S.E.M. IK1 was recorded during 900 msec voltage steps applied from a holding potential of −40 mV to test potentials ranging from −100 mV to 0 mV, and was characterized as the 5 msec average of the steady state current at the end of the test pulse.
The inward rectifier, IK1, was recorded using perforated-patch voltage clamp techniques. […] Panel B plots composite data illustrating the current-voltage relations constructed from the average current measured at the end of each test pulse

M cell preparations = test system: M cell preparations; set-up: species or system canine; conditions: for Amplitude / Overshoot / RMP: BCL = 500 msec; for Reduction of Vmax: preparation type not stated
Method: The composition of the Tyrode's solution was (in mM): […] Action potential recordings: Transmembrane potentials were recorded using standard glass microelectrodes filled with 2.7 M KCl (10 to 20 MΩ DC resistance) connected to a high input-impedance amplification system (World Precision Instruments, Sarasota, Fla., USA). […] Data recorded at BCLs of 500 and 2000 msec are presented.

[3] = M cell, low [K+]o, BCL = 2000 msec

COc1ccccc1OCC(O)CN1CCN(CC(=O)Nc2c(C)cccc2C)CC1 (racemic) [ranolazine, N-(2,6-dimethylphenyl)-4-[2-hydroxy-3-(2-methoxyphenoxy)propyl]-1-piperazineacetamide]
USP Solubility Class ([1]; solution pH 4.81): Freely Soluble | USP Solubility Class ([1]; solution pH 4.89): Soluble | USP Solubility Class ([1]; solution pH 4.90): Soluble | USP Solubility Class ([1]; solution pH 5.04): Soluble | USP Solubility Class ([1]; solution pH 5.35): Sparingly Soluble | USP Solubility Class ([1]; solution pH 5.82): Slightly soluble | USP Solubility Class ([1]; solution pH 6.46): Slightly soluble | USP Solubility Class ([1]; solution pH 6.73): Very slightly soluble | USP Solubility Class ([1]; solution pH 7.08): Very slightly soluble | USP Solubility Class ([1]; solution pH 7.59 (unbuffered water)): Very slightly soluble | USP Solubility Class ([1]; solution pH 7.79): Very slightly soluble | USP Solubility Class ([1]; solution pH 12.66): Very slightly soluble | Effect on IK1 [2]: no change | Effect on IK1 ([2]; listed as Ranolazine): did not alter | Effect on APD (M cell preparations; M cell preparations, BCL 500 msec): abbreviation | Effect on APD50 and APD90 (M cell preparations; M cell, [K+]o = 4 mM, BCL = 2000 msec): concentration-dependent abbreviation | Effect on repolarization (M cell preparations; M cell, low [K+]o, BCL 500 msec): little change | Effect on APD50 (M cell preparations; [3]): concentration-dependent abbreviation | Effect on APD90 (M cell preparations; [3]): no significant change | Amplitude (M cell preparations; M cell, ranolazine 1.0 μM): 109 ± 9 | Overshoot (M cell preparations; M cell, ranolazine 1.0 μM): 23 ± 10 | RMP (M cell preparations; M cell, ranolazine 1.0 μM): −86 ± 3 | Amplitude (M cell preparations; M cell, ranolazine 5.0 μM): 114 ± 8 | Overshoot (M cell preparations; M cell, ranolazine 5.0 μM): 27 ± 7 | RMP (M cell preparations; M cell, ranolazine 5.0 μM): −86 ± 3 | Amplitude (M cell preparations; M cell, ranolazine 10.0 μM): 113 ± 9 | Overshoot (M cell preparations; M cell, ranolazine 10.0 μM): 25 ± 8 | RMP (M cell preparations; M cell, ranolazine 10.0 μM): −86 ± 2 | Amplitude (M cell preparations; M cell, ranolazine 50.0 μM): 104 ± 7 | Overshoot (M cell preparations; M cell, ranolazine 50.0 μM): 19 ± 3 | RMP (M cell preparations; M cell, ranolazine 50.0 μM): −86 ± 5 | Amplitude (M cell preparations; M cell, ranolazine 100.0 μM): 91 ± 19 | Overshoot (M cell preparations; M cell, ranolazine 100.0 μM): 9 ± 13 | RMP (M cell preparations; M cell, ranolazine 100.0 μM): −86 ± 7 | Reduction of Vmax (M cell preparations; ranolazine 10 μM, BCL 500 msec): modest (n.s.) | Reduction of Vmax (M cell preparations; ranolazine 100 μM, BCL 500 msec): more substantial | Preparations in which d-sotalol-induced EAD activity was suppressed and APD abbreviated (M cell preparations; ranolazine 5-20 μM, 100 μM d-sotalol, M cell preparations): 4/4
